Patent US20180099917A1, “REVERSIBLY REDUCIBLE MATERIALS AND USE THEREOF” (University of Kentucky Research Foundation, priority 2016, published 2018)
≈ marks a conversion by molar mass, not a printed value. Like-named read-outs stand apart in the source and are kept apart here.

How the values were obtained:
[1] = Solubility in acetonitrile; assay type: physicochemical
Experimental: In some embodiments, modifying the Z group in formula I above adjusts the solubility of the resulting compound. For example, in one embodiment, compound number 1 has a solubility of 0.1 M in acetonitrile (electrolyte solution), while compound number 2 has a solubility of 0.3 M in acetonitrile.
(§1) Following the formation of reversibly reducible materials as discussed above, various compounds were tested for structure, solubility, and reduction potentials. The results are provided in Table 2 below, with solubility shown in acetonitrile at 23° C. and reduction potentials shown versus ferrocene.

[2] = Reduction potentials versus ferrocene (electrochemistry in acetonitrile); assay type: physicochemical; conditions: for First Reduction / Second Reduction: reduction potential versus ferrocene
Text: The reversibly reducible material according to one or more of the embodiments disclosed herein is soluble in at least one solvent for redox flow batteries. Accordingly, also provided herein is a negolyte for use in redox-flow batteries, the negolyte including the reversibly reducible material and a redox flow battery solvent. Such solvents include, but are not limited to, acetonitrile, propylene glycol, propylene carbonate, dimethyl acetamide, and dimethyl formamide. […] In some embodiments, the negolyte also includes an electrolyte. Suitable electrolytes include, but are not limited to, tetraalkylammonium hexafluorophosphate, perchlorate, tetrafluoroborate, triflate, perfluorobutylsulfonate, lithium salts thereof (e.g., lithium hexafluorophosphate or perchlorate), other organic-soluble materials, any other suitable electrolyte, or a combination thereof. Other suitable electrolytes include, but are not limited to, sulfuric acid and/or potassium hydroxide. An example of the electrochemical trace, with internal ferrocene standard in acetonitrile using tetrabutylammonium hexafluorophosphate electrolyte, is shown in FIG. 1. Although discussed above with regard to non-aqueous redox flow batteries, as will be appreciated by those skilled in the art the instant disclosure is not so limited and may include aqueous redox flow batteries as well.
as §1

[3] = acetonitrile (electrolyte solution), organic solvent or mixture, read-out: solubility in acetonitrile
[4] = organic solvent or mixture, in acetonitrile at 23° C., read-out: Solubility

Row | solubility compared to compound 2 ([1]; Cl at the R5 position versus identical compound without Cl) | First Reduction [2] | Second Reduction [2] | solubility ([1]; in acetonitrile at 23° C.) | solubility [1, 3] | solubility [1, 4] | Structure (SMILES) | electrochemistry properties ([2]; second group on the N atom)
1 | increases the solubility | – | – | – | – | – | COCCNC1=C(Cl)C(=O)c2ccccc2C1=O [Compound 10] | –
2 | – | −1.316 V | −1.798 V | – | 300 mM (≈ 69.4 mg/mL) | 300 mM (≈ 69.4 mg/mL) | COCCNC1=CC(=O)c2ccccc2C1=O [Compound 2] | –

Continued, compound first:

Row | Structure (SMILES) | solubility compared to compound 2 ([1]; Cl at the R5 position versus identical compound without Cl) | First Reduction [2] | Second Reduction [2] | solubility ([1]; in acetonitrile at 23° C.) | solubility [1, 3] | solubility [1, 4] | electrochemistry properties ([2]; second group on the N atom)
3 | COCCOCCOCCNC1=CC(=O)c2ccccc2C1=O | – | −1.295 V | −1.784 V | Miscible | – | – | –
4 | CCN(CC)C1=CC(=O)c2ccccc2C1=O [Compound 11] | – | −1.362 V | −1.686 V | – | 700 mM (≈ 160 mg/mL) | 700 mM (≈ 160 mg/mL) | excellent electrochemistry properties
5 | CC(C)CNC1=CC(=O)c2ccccc2C1=O [Compound 1] | – | −1.266 V | −1.841 V | – | 100 mM (≈ 22.9 mg/mL) | 100 mM (≈ 22.9 mg/mL) | –
6 | COCCN(CCOC)C1=CC(=O)c2ccccc2C1=O | – | −1.295 V | -1.67 V | Miscible | – | – | –
